Laboratory results from PubChem BioAssay (NCI).
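Where inhibition never reached the appropriate level, the endpoint shown equals the highest concentration tested. Otherwise, values were interpolated linearly from a five-concentration, 48-hour dose response in 96-well plates. The concentration for 50% growth inhibition is given as GI50. TGI denotes the concentration required for complete inhibition of growth.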

Key:
Assay in all cases: NCI anticancer screen, dose series, 48 h
[1] = system: 786-0 renal
[2] = system: A498 renal
[3] = system: A549 NSCLC
[4] = system: ACHN renal
[5] = system: BT-549 breast
[6] = system: CAKI-1 renal
[7] = system: CCRF-CEM leukemia
[8] = system: COLO 205 colon
[9] = system: DU-145 prostate
[10] = system: EKVX NSCLC
[11] = system: HCC-2998 colon
[12] = system: HCT-116 colon
[13] = system: HCT-15 colon
[14] = system: HL-60(TB) leukemia
[15] = system: HOP-62 NSCLC
[16] = system: HOP-92 NSCLC
[17] = system: HS 578T breast
[18] = system: HT29 colon
[19] = system: IGROV1 ovarian
[20] = system: K-562 leukemia
[21] = system: KM12 colon
[22] = system: LOX IMVI melanoma
[23] = system: M14 melanoma
[24] = system: MALME-3M melanoma
[25] = system: MCF7 breast
[26] = system: MDA-MB-231 breast
[27] = system: MDA-MB-435
[28] = system: MOLT-4 leukemia
[29] = system: NCI-H226 lung
[30] = system: NCI-H23 lung
[31] = system: NCI-H460 lung
[32] = system: NCI-H522 lung
[33] = system: NCI/ADR-RES ovarian
[34] = system: OVCAR-3 ovarian
[35] = system: OVCAR-4 ovarian
[36] = system: OVCAR-5 ovarian
[37] = system: OVCAR-8 ovarian
[38] = system: PC-3 prostate
[39] = system: RPMI-8226 leukemia
[40] = system: RXF 393 renal
[41] = system: SF-268 CNS
[42] = system: SF-295 CNS
[43] = system: SF-539 CNS
[44] = system: SK-MEL-2 melanoma
[45] = system: SK-MEL-28 melanoma
[46] = system: SK-MEL-5 melanoma
[47] = system: SK-OV-3 ovarian
[48] = system: SN12C renal
[49] = system: SNB-75 CNS
[50] = system: SR leukemia
[51] = system: SW-620 colon
[52] = system: T-47D breast
[53] = system: TK-10 renal
[54] = system: U251 CNS
[55] = system: UACC-257 melanoma
[56] = system: UACC-62 melanoma
[57] = system: UO-31 renal

CCCCCCCCc1ccc(OCCOCC[N+](C)(C)CC)cc1 (tested in a mixture with another compound)
GI50 [1]: 14.2 µM | TGI [1]: 28.8 µM | GI50 [2]: 9.16 µM | TGI [2]: 22 µM | GI50 [3]: 9.99 µM | TGI [3]: 23.1 µM | GI50 [4]: 15.6 µM | TGI [4]: 30.4 µM | GI50 [5]: 3.03 µM | TGI [5]: 9.8 µM | GI50 [6]: 54.8 µM | TGI [6]: > 100 µM | GI50 [7]: 3.2 µM | TGI [7]: 15.9 µM | GI50 [8]: 1.59 µM | TGI [8]: 3.21 µM | GI50 [9]: 8.09 µM | TGI [9]: 22.8 µM | GI50 [10]: 4.6 µM | TGI [10]: 18.7 µM | GI50 [11]: 3.74 µM | TGI [11]: 13.6 µM | GI50 [12]: 3.84 µM | TGI [12]: 14.8 µM | GI50 [13]: 24.8 µM | TGI [13]: > 100 µM | GI50 [14]: 1.47 µM | TGI [14]: 4.85 µM | GI50 [15]: 5 µM | TGI [15]: 17.2 µM | GI50 [16]: 1.17 µM | TGI [16]: 4.51 µM | GI50 [17]: 3.2 µM | TGI [17]: 16.6 µM | GI50 [18]: 3.1 µM | TGI [18]: 13.5 µM | GI50 [19]: 3.74 µM | TGI [19]: 14.7 µM | GI50 [20]: 3.06 µM | TGI [20]: 15.4 µM | GI50 [21]: 3.72 µM | TGI [21]: 13.8 µM | GI50 [22]: 2.7 µM | TGI [22]: 13.7 µM | GI50 [23]: 4.07 µM | TGI [23]: 17.2 µM | GI50 [24]: 1.93 µM | TGI [24]: 6.44 µM | GI50 [25]: 3.05 µM | TGI [25]: 12.6 µM | GI50 [26]: 2.75 µM | TGI [26]: 11.3 µM | GI50 [27]: 2.91 µM | TGI [27]: 11.2 µM | GI50 [28]: 4.39 µM | TGI [28]: 18.2 µM | GI50 [29]: 4.31 µM | TGI [29]: 19.2 µM | GI50 [30]: 3.42 µM | TGI [30]: 15.8 µM | GI50 [31]: 3.94 µM | TGI [31]: 14.5 µM | GI50 [32]: 2.18 µM | TGI [32]: 9.84 µM | GI50 [33]: > 100 µM | TGI [33]: > 100 µM | GI50 [34]: 2.79 µM | TGI [34]: 12.5 µM | GI50 [35]: 1.66 µM | TGI [35]: 10.8 µM | GI50 [36]: 7.5 µM | TGI [36]: 20.9 µM | GI50 [37]: 3.81 µM | TGI [37]: 15.4 µM | GI50 [38]: 3.12 µM | TGI [38]: 12.6 µM | GI50 [39]: 2.03 µM | TGI [39]: 6.82 µM | GI50 [40]: 10.5 µM | TGI [40]: 23.4 µM | GI50 [41]: 4.22 µM | TGI [41]: 16.9 µM | GI50 [42]: 13 µM | TGI [42]: 27 µM | GI50 [43]: 3.97 µM | TGI [43]: 15 µM | GI50 [44]: 2.56 µM | TGI [44]: 8.53 µM | GI50 [45]: 3.25 µM | TGI [45]: 15.4 µM | GI50 [46]: 1.45 µM | TGI [46]: 3.06 µM | GI50 [47]: 7.74 µM | TGI [47]: 20.2 µM | GI50 [48]: 3.07 µM | TGI [48]: 11.9 µM | GI50 [49]: 2.12 µM | TGI [49]: 9 µM | GI50 [50]: 3 µM | TGI [50]: 14.3 µM | GI50 [51]: 3.97 µM | TGI [51]: 16.1 µM | GI50 [52]: 3.14 µM | TGI [52]: 13.7 µM | GI50 [53]: 14.8 µM | TGI [53]: 29.1 µM | GI50 [54]: 1.8 µM | TGI [54]: 12.3 µM | GI50 [55]: 2.34 µM | TGI [55]: 6.8 µM | GI50 [56]: 1.88 µM | TGI [56]: 5.48 µM | GI50 [57]: 17.5 µM | TGI [57]: 45.4 µM
